US10646600B2, “HER2 polypeptides useful for imaging and monitoring tumors and cancers” (GE HEALTHCARE LIMITED, priority 2013, dated 2020)
Entries after “also recorded” stand apart in the source; their conditions may differ.

How the values were obtained:
[1] = system: SKOV-3 cells; assay: In vitro uptake assay in SKOV-3 cells (blocking, siRNA, drug treatment, specific activity); format: cell-based, human; settings: NVP-AUY922 for 24 h
Procedure: For siRNA-mediated HER2 knockdown, SKOV-3 cells were transfected with 25 nM scramble control (SCR; Dharmacon, Lafayette, Colo., ON-TARGETplus Non-targeting Pool, Cat. Nr: D-001810-10-05) or HER2-targeting siRNA (Invitrogen ERBB2 Silencer® Select Validated siRNA; Cat. Nr: 4457298) by reverse wet transfection with Lipofectamine RNAiMAX (Invitrogen) according to manufacturer's instructions. 3×10^5 cells were seeded in 12-well plates 48 h prior to uptake experiment. Target knockdown was verified by western blotting on cells that were transfected in parallel.
For all uptake studies in response to drug treatment, 2.5×10^5 SKOV-3 cells were seeded in complete medium 48 h prior to uptake experiments.
For baseline uptake in HER2 positive or negative lineages, 3×10^5 cells were seeded in complete media in 12-well plates (Corning, Tewksbury Mass.) and allowed to recover overnight. Cells were washed twice with serum-free medium and pulsed with 370 KBq in 500 μL serum-free medium for one h. For blocking studies, cells were co-incubated with tracer and 0.5 mg/mL cold unlabeled [^19F]GE-226[SEQ ID NO 1].
Cells were washed with PBS, trypsinized, neutralized with complete medium and centrifuged. The pellet was washed three times with PBS and lysed in 120 μL RIPA buffer (Sigma-Aldrich). The radioactivity of 100 μL lysate was counted on a Packard Cobra II gamma counter (Perkin Elmer). Radioactivity was normalized to applied radioactivity and protein content, which was determined for each sample by BCA assay (Pierce, Rockford, Ill.).

[2] = system: HER2; assay: Western blot of HER2 protein expression in drug-treated SKOV-3 cells; format: cell-based, human; settings: NVP-AUY922 for 24 h, compared to untreated controls
Procedure: For all uptake studies in response to drug treatment, 2.5×10^5 SKOV-3 cells were seeded in complete medium 48 h prior to uptake experiments. […] Cells were lysed in RIPA buffer containing protease and phosphatase inhibitors (from Sigma-Aldrich). Equal amounts of protein (20 μg) were resolved on 4-15% mini-protean TGX gels (Biorad, Hercules, Calif.) and transferred to PVDF membranes (Trans-Blot Turbo Transfer Packs, Biorad). Membranes were blocked for 1 h in 5% milk in Tris-buffered saline containing 0.1% v/v tween (TBST, Cell Signaling, Danvers, Mass.) and incubated with antibodies against HER2 (Cell Signal, Cat. Nr: 2165 for visualization of p95HER2 and full-length HER2 bands and Cat. Nr: 4290 for blots where only full-length HER2 is shown), EGFR (Cell Signal, Cat. Nr: 4267) or (3-actin (Abcam, Cambridge, United Kingdom, Cat. Nr: ab6276) overnight at 4° C. Secondary HRP-conjugated mouse and rabbit antibodies (Santa Cruz Biotechnology, Dallas, Tex.) were applied for one h at room temperature. Signals were visualized using Amersham ECL™ Western Blotting Detection Reagent (GE Healthcare) and Amersham Hyper-film (GE Healthcare).

[3] = system: SKOV-3 xenografts; assay: PET-CT imaging and kinetic modeling, SKOV-3 xenografts; format: in vivo, mice
Procedure: […] […] To investigate response to HSP90 inhibition, SKOV-3 xenograft-bearing mice were treated with 50 mg/kg NVP-AUY922 or equivalent volume of vehicle (˜5 μL/g body weight; 10% DMSO and 5% Tween-20 in PBS) q.d. i.p. for three days. 24 h after the last treatment, animals were used for PET imaging.
Mice were anesthetized through isoflurane inhalation and scanned on a dedicated small animal PET-CT scanner (Siemens Multimodality Inveon, Erlangen, Germany). Low dose CT scans were first acquired (80 kVp, 0.5 mA, 220 degree rotation, 600 ms per degree exposure time, 80 μm reconstruction pixel size) for PET attenuation correction and to obtain an anatomical reference. PET images were acquired following a bolus i.v. injection of approximately 3.7 MBq [^18F]GE-226 in the tail vein. Dynamic emission scans were acquired in list mode format over 60 minutes. The acquired data were sorted into 0.5-mm sinogram bins and 19 time frames for image reconstruction by filtered back projection (4×15 seconds and 4×60 seconds followed by 11×300 seconds). The Siemens Inveon Research Workplace software was used for visualization of radiotracer uptake. 30 to 60-minute cumulative images of the dynamic data were employed to define 3-dimensional (3D) regions of interest (ROI). Arterial input function was estimated by drawing ROIs over the center of the heart cavity using 0.25 to 2 minutes of cumulative images. The count densities were averaged for all ROIs at each time point to obtain time versus radioactivity curves (TAC). Tumor TACs were normalized to injected dose measured by a VDC-304 dose calibrator (Veenstra Instruments, Joure, Netherlands) and normalized uptake was expressed as percentage injected dose per mL tissue (NUV; % ID/mL). Normalized uptake of radiotracer at 60 minutes (NUV60) was used for comparisons. For qualitative image visualization, cumulative images of the dynamic data (30 to 60 min) were also iteratively reconstructed (OSEM3D).
Kinetic analysis of PET data was performed applying a standard two-tissue irreversible compartmental model to fit each tumor TAC with the corresponding image-derived plasma TAC as input function (IF) to estimate K1 (mL/cm^3/min), k2, (1/min) and k3 (1/min) and the blood vascular component Vb (mL blood/mL tissue; unitless). The irreversible uptake rate Ki (mL/cm^3/min) was computed as K1×k3/(k2+k3). To estimate the kinetic parameters the measured tumor TAC (tTAC) was modeled as tTAC(t)=(1−Vb)h(t)⊗IF(t)+VbIF(t) with h(t) indicating the unknown tissue impulse function and ⊗ the convolution operator. The parameter vector p=[K1, k2, k3, Vb] was estimated with the standard Weighted Non-Linear Least Squares (WNLLS) by minimizing the Weighted Residual Sum of Squares (WRSS) function

[4] = system: HER2; assay: HER2 expression in SKOV-3 tumors after NVP-AUY922; format: in vivo, mice; settings: 3 doses of 50 mg/kg NVP-AUY922 versus vehicle
Procedure: For blocking studies, SKOV-3 xenograft bearing mice were administered 500 μg (˜25 mg/kg) cold [^19F]GE-226[SEQ ID NO 1] intravenously (i.v.) through the tail vain 20 minutes before administration of radiotracer. […] To investigate response to HSP90 inhibition, SKOV-3 xenograft-bearing mice were treated with 50 mg/kg NVP-AUY922 or equivalent volume of vehicle (˜5 μL/g body weight; 10% DMSO and 5% Tween-20 in PBS) q.d. i.p. for three days. 24 h after the last treatment, animals were used for PET imaging.
Excised and snap frozen tumor tissue samples were homogenized in RIPA lysis buffer (Sigma-Aldrich) with the PreCellys 24 homogenizer and CK14 beads-containing tubes (two cycles of 25 seconds at 6500 rpm). HER2 expression was determined by ELISA (Calbiochem, Darmstadt, Germany, c-ErbB2/c-Neu Rapid Format ELISA Ki, Cat. Nr: QIA10-1EA) according to manufacturer's instructions.

[5] = system: NCI-N87 tumors; assay: Fluorescent GE-226 localization versus DAKO HercepTest, NCI-N87 tumors; format: in vivo, mice; settings: 15 mg/kg i.v., tumors excised two h post injection
Procedure: (§1) The bilateral A431/NCI-N87 model was established by s.c. injection of A431 (1×10^7 cells) and NCI-N87 cells (2×10^6 cells) in 100 μL PBS mixed 1:1 with Matrigel™ in the lower flanks of 4-6 week old male CD-1 nude mice (Charles River Laboratories, Wilmington, Mass.). Tumor volumes were monitored frequently as described above and when they reached 50-100 mm^3 (approximately 3-4 weeks), mice were administered a mixture of Hoechst (˜20 mg/kg) and fluorescein-conjugated-GE226[SEQ ID NO 1] (˜15 mg/kg) in 100 μL PBS i.v. through the tail vein. The tumors were excised 120 minutes post injection, immediately fixed in formalin and embedded in paraffin. Sections were sliced and stored in the dark at −80° C. Immunofluorescent images were acquired at 400× magnification. Adjacent tumor sections were immunohistochemically stained with HercepTest™.
(§2) HER2 protein expression in excised tumors was assessed using the HercepTest™ (Dako, Ely, United Kingdom, Cat. Nr: K5204) according to manufacturer's instructions.
(§3) To examine cellular localization, GE-226[SEQ ID NO 1] was labeled with fluorescein and compared localization and fluorescent intensity in tumor sections with FDA approved DAKO HercepTest™. In contrast to PET experiments, normalization to injected dose is not possible with fluorescent compounds. To eliminate inter-subject variability, experiments were performed in bilateral tumor-bearing mice. […]

[6] = system: A431 tumors; assay: Fluorescent GE-226 localization versus DAKO HercepTest, A431 tumors; format: in vivo, mice; settings: 15 mg/kg i.v., tumors excised two h post injection; HER2 negative
Procedure: as §1, §2, §3

[7] = system: HER2; settings: report by Smith-Jones and co-workers (36); cited from earlier work

CCNC(=O)c1noc(-c2cc(C(C)C)c(O)cc2O)c1-c1ccc(CN2CCOCC2)cc1 [NVP-AUY922, reference compound]
effect on tracer uptake in SKOV-3 cells [1]: reduced tracer uptake | effect on HER2 protein expression [2]: dose-dependent HER2 degradation; also recorded: dose-dependent decrease of HER2 protein expression | effect on tracer uptake in vivo ([3]; 3 doses of 50 mg/kg NVP-AUY922): decreased tracer uptake | AUC0_60 of [18F]GE-226 after drug ([3]; three daily doses of 50 mg/kg NVP-AUY922, vehicle 618.4±90.1, P=0.043): 446.7±42.8 % ID/mL*min | NUV60 of [18F]GE-226 after drug ([3]; three daily doses of 50 mg/kg NVP-AUY922 i.p., vehicle 13.5±2.1): 9.0±0.9 % ID/mL | effect on HER2 expression in tumors [4]: reduced HER2 expression

fluorescein-GE-226: GE-226[SEQ ID NO 1] labeled with fluorescein
localization of fluorescent staining versus HER2 [5]: co-localized with regions that are HER2 positive | localization of fluorescent staining versus HER2 ([5]; listed as fluorescently labeled tracer analogue): co-localized with HER2 expression at the cellular level | fluorescent staining [6]: negligible

C=CCNC1=C2C[C@@H](C)C[C@H](OC)[C@H](O)[C@@H](C)/C=C(\C)[C@H](OC(N)=O)[C@@H](OC)/C=C\C=C(/C)C(=O)NC(=CC1=O)C2=O [17-allylaminogeldanamycin]
effect on HER2 [7]: degrades HER2
